The record followed here is patent publication US6630469B2, “5-HT7 receptor antagonists” (Bristol-Myers Squibb Company, priority 2000, dated 2003).

Bounds are passed on as bounds.

For the assay, the target named is T1, human 5-HT7 receptor (Homo sapiens, UniProt P34969).
T1 construct: expressed in transfected cells; host or cells: CHO cells
T1 sequence (P34969 whole entry): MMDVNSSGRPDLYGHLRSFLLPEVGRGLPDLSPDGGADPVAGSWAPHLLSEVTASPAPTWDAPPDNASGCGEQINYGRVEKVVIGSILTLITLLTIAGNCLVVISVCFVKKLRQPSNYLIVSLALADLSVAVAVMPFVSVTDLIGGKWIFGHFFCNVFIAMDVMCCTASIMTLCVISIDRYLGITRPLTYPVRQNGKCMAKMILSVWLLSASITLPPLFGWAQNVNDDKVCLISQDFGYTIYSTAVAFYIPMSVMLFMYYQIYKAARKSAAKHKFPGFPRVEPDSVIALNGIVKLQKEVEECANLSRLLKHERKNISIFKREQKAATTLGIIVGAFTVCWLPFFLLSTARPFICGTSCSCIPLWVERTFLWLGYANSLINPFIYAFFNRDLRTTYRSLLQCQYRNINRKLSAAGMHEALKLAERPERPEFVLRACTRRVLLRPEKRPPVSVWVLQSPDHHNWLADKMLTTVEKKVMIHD
Kind of assay: 5-HT7 Receptor Binding Assay. The following applies: membranes of CHO cells expressing human 5-HT7 receptor; 1 nM 3H-5-carboxamidotryptamine; 25° C., 60 minutes. As for the experimental part:
5-HT7 Receptor Binding Assay
Membranes are prepared for binding using the human 5-HT7 receptor expressed in CHO cells. Cells are collected and ruptured using a dounce homogenizer. The cells are spun at 18000× g for 10 minutes and the pellet is resuspended in assay buffer, frozen in liquid nitrogen and kept at −80° C. until the day of the assay.
A total of 30 ug protein is used per well. The assay is carried out in 96-deep-well plates. The assay buffer is 50 mM HEPES. The membrane preparation is incubated at 25° C. for 60 minutes with 0.1 nM to 1000 nM test compound and 1 nM ^3H-5-carboxamidotryptamine. 10 uM serotonin is used as blocking agent to determine non-specific binding. The reaction is terminated by the addition of 1 ml of ice cold 5OmM HEPES buffer and rapid filtration through a Brandel Cell Harvester using Whatman GF/B filters. The filter pads are counted in an LKB Trilux liquid scintillation counter. IC50 values are determined using non-linear regression by Exel-fit.
By IC50 is commonly meant the concentration that inhibits the measured activity by half. Low readings indicate greater potency in that assay, high ones weaker potency in that assay. With `C[C@H](Nc1nc(N)nc(NCCc2ccccc2)n1)c1cccc2ccccc12` [Compound 56, N^2-[(1S)-1-(1-Napthalenyl)ethyl]-N^4-(2-phenylethyl)-1,3,5-triazine-2,4,6-triamine], the half-inhibitory concentration (IC50) was in the range of 51 to 100 nM. In the case of `C[C@H](Nc1nc(N)nc(NCCC2=CCCCC2)n1)c1ccccc1` [Compound 57, N^2-[2-(1-Cyclohexenyl)ethyl]-N^4-[(1S)-1-phenylethyl]-1,3,5-triazine-2,4,6-triamine], the IC50 lay in the range of 51 to 100 nM.

Take `C[C@H](Nc1nc(N)nc(NCCc2cccc(Cl)c2)n1)c1ccc([N+](=O)[O-])cc1` [Compound 58, N^2-[2-(3-Chlorophenyl)ethyl]-N^4-[(1S)-1-(4-nitrophenyl)ethyl]-1,3,5-triazine-2,4,6-triamine]: the 50% inhibitory concentration (IC50) lay in the range of 51 to 100 nM.

For `C[C@H](Nc1nc(N)nc(NCCc2ccc(Cl)cc2)n1)c1ccc([N+](=O)[O-])cc1` [Compound 59, N^2-[2-(4-Chlorophenyl)ethyl]-N^4-[(1S)-1-(4-nitrophenyl)ethyl]-1,3,5-triazine-2,4,6-triamine], the IC50 fell in the range of 51 to 100 nM. With `C[C@H](Nc1nc(N)nc(NCCc2ccccc2)n1)c1ccccc1` [Compound 60, N^2-[(1S)-1-Phenylethyl]-N^4-(2-phenylethyl)-1,3,5-triazine-2,4,6-triamine] the figure was not above 50 nM. The same measure for `C[C@H](Nc1nc(N)nc(NCCc2cccc(F)c2)n1)c1ccccc1` [Compound 61, N^2-[2-(3-Fluorophenyl)ethyl]-N^4-[(1S)-1-phenylethyl]-1,3,5-triazine-2,4,6-triamine]: not above 50 nM; for `C[C@H](Nc1nc(N)nc(NCCc2cccc(Cl)c2)n1)c1ccccc1` [Compound 62, N^2-[2-(3-Chlorophenyl)ethyl]-N^4-[(1S)-1-phenylethyl]-1,3,5-triazine-2,4,6-triamine]: not above 50 nM; for `CC[C@H](Nc1nc(N)nc(NCCc2cccc(F)c2)n1)c1ccccc1` [Compound 63, N^2-[2-(3-Fluorophenyl)ethyl]-N^4-[(1S)-1-phenylpropyl]-1,3,5-triazine-2,4,6-triamine]: not above 50 nM. `C[C@H](Nc1nc(N)nc(NCCc2ccc(F)cc2)n1)c1ccccc1` [Compound 64, N^2-[2-(4-Fluorophenyl)ethyl]-N^4-[(1S)-1-phenylethyl]-1,3,5-triazine-2,4,6-triamine] gave a half-inhibitory concentration (IC50) not above 50 nM. The compound `CC[C@H](Nc1nc(N)nc(NCCc2ccccc2)n1)c1ccccc1` [Compound 65, N^2-2-Phenylethyl-N^4-[(1S)-1-phenylpropyl]-1,3,5-triazine-2,4,6-triamine] had an IC50 not above 50 nM. With `C[C@H](Nc1nc(N)nc(NCCc2cccc(Br)c2)n1)c1ccccc1` [Compound 66, N^2-[2-(3-Bromophenyl)ethyl]-N^4-[(1S)-1-phenylethyl]-1,3,5-triazine-2,4,6-triamine] the figure was not above 50 nM; with `CC[C@H](Nc1nc(N)nc(NCCc2ccc(F)cc2)n1)c1ccccc1` [Compound 67, N^2-[2-(4-Fluorophenyl)ethyl]-N^4-[(1S)-1-phenylpropyl]-1,3,5-triazine-2,4,6-triamine], not above 50 nM; with `C[C@H](Nc1nc(N)nc(NCCc2cccc(F)c2)n1)c1ccc(Br)cc1` [Compound 68, N^2-[(1S)-1-(4-Bromophenyl)ethyl]-N^4-[2-(3-fluorophenyl)ethyl]-1,3,5-triazine-2,4,6-triamine], not above 50 nM. In the case of `CC[C@H](Nc1nc(N)nc(NCCc2cccc(Cl)c2)n1)c1ccccc1` [Compound 69, N^2-[2-(3-Chlorophenyl)ethyl]-N^4-[(1S)-1-phenylpropyl]-1,3,5-triazine-2,4,6-triamine], the half-inhibitory concentration (IC50) was not above 50 nM. The same measure for `C[C@H](Nc1nc(N)nc(NCCc2ccc(F)cc2)n1)c1ccc(Br)cc1` [Compound 70, N^2-[(1S)-1-(4-Bromophenyl)ethyl]-N^4-[2-(4-fluorophenyl)ethyl]-1,3,5-triazine-2,4,6-triamine]: not above 50 nM; for `C[C@H](Nc1nc(N)nc(NCCc2ccc(Cl)c(Cl)c2)n1)c1ccccc1` [Compound 71, N^2-[2-(3,4-Dichlorophenyl)ethyl]-N^4-[(1S)-1-phenylethyl]-1,3,5-triazine-2,4,6-triamine]: not above 50 nM; for `Cc1ccc(CCNc2nc(N)nc(N[C@@H](C)c3ccccc3)n2)cc1` [Compound 72, N^2-[2-(4-Methylphenyl)ethyl]-N^4-[(1S)-1-phenylethyl]-1,3,5-triazine-2,4,6-triamine]: not above 50 nM.

The compound `C[C@H](Nc1nc(N)nc(NCCc2cccc(O)c2)n1)c1ccccc1` [Compound 73, N^2-[2-(3-Hydroxyphenyl)ethyl]-N^4-[(1S)-1-phenylethyl]-1,3,5-triazine-2,4,6-triamine] had a concentration for half-maximal inhibition (IC50) not above 50 nM.

As for `C[C@H](Nc1nc(N)nc(NCCc2ccc(F)cc2)n1)c1ccc([N+](=O)[O-])cc1` [Compound 74, N^2-[2-(4-Fluorophenyl)ethyl]-N^4-[(1S)-1-(4-nitrophenyl)ethyl]-1,3,5-triazine-2,4,6-triamine], the 50% inhibitory concentration (IC50) is not above 50 nM. As to `C[C@H](Nc1nc(N)nc(NCCc2ccc(O)cc2)n1)c1ccc([N+](=O)[O-])cc1` [Compound 75, N^2-[2-(4-Hydroxyphenyl)ethyl]-N^4-[(1S)-1-(4-nitrophenyl)ethyl]-1,3,5-triazine-2,4,6-triamine], the IC50 is not above 50 nM. With `C[C@H](Nc1nc(N)nc(NCCc2ccccc2F)n1)c1ccc([N+](=O)[O-])cc1` [Compound 76, N^2-[2-(2-Fluorophenyl)ethyl]-N^4-[(1S)-1-(4-nitrophenyl)ethyl]-1,3,5-triazine-2,4,6-triamine] the figure was not above 50 nM; with `COc1cccc(CCNc2nc(N)nc(N[C@@H](C)c3ccc([N+](=O)[O-])cc3)n2)c1` [Compound 77, N^2-[2-(3-Methoxyphenyl)ethyl]-N^4-[(1S)-1-(4-nitrophenyl)ethyl]-1,3,5-triazine-2,4,6-triamine], not above 50 nM; with `C[C@H](Nc1nc(N)nc(NCCc2ccc(N)cc2)n1)c1ccc([N+](=O)[O-])cc1` [Compound 78, N^2-[2-(4-Aminophenyl)ethyl]-N^4-[(1S)-1-(4-nitrophenyl)ethyl]-1,3,5-triazine-2,4,6-triamine], not above 50 nM. Turning to `Cc1ccc(CCNc2nc(N)nc(N[C@@H](C)c3ccc([N+](=O)[O-])cc3)n2)cc1` [Compound 79, N^2-[2-(4-Methylphenyl)ethyl]-N^4-[(1S)-1-(4-nitrophenyl)ethyl]-1,3,5-triazine-2,4,6-triamine], the IC50 was not above 50 nM.

Take `COc1cc(CCNc2nc(N)nc(N[C@@H](C)c3ccc([N+](=O)[O-])cc3)n2)ccc1O` [Compound 80, N^2-[2-(4-Hydroxy-3-methoxyphenyl)ethyl]-N^4-[(1S)-1-(4-nitrophenyl)ethyl]-1,3,5-triazine-2,4,6-triamine]: the concentration for half-maximal inhibition (IC50) is not above 50 nM. For `C[C@H](Nc1cc(NCCOc2ccc(F)cc2)ncn1)c1ccccc1` [Example 16, N^4-[2-(4-Fluorophenoxy)ethyl]-N^6-[(1S)-1-phenylethyl]pyrimidine-4,6-diamine], the IC50 is not above 50 nM. With `C[C@H](Nc1nc(N)nc(NCCc2ccc(F)cc2)n1)c1ccc(F)cc1` [Example 17, N^2-[(1S)-1-(4-Fluorophenyl)ethyl]-N^4-[2-(4-fluorophenyl)ethyl]-1,3,5-triazine-2,4,6-triamine] the figure was not above 50 nM.
